Test results from the OPERA property sets (Mansouri et al. 2018).
Values after ≈ are worked out from the molar mass of the structure shown.

Conditions: for solubility: 25 °C

Row | logP | solubility [mM] | Structure (SMILES)
1 | 1.04 | 10.7 (≈ 2600 µg/mL) | NS(=O)(=O)c1ccc(CCCCCO)cc1
2 | 0.23 | – | CC(C)CNCCS(=O)(=O)c1ccc(S(N)(=O)=O)cc1
3 | 0.85 | – | NS(=O)(=O)c1ccc(SCCCO)s1
4 | 0.11 | – | CC(=O)OCCS(=O)(=O)c1ccc(S(N)(=O)=O)s1
5 | 1.59 | – | NS(=O)(=O)c1ccc(SCCCO)c(Cl)c1
6 | -0.09 | 11.4 (≈ 3500 µg/mL) | CC(C)(O)CCS(=O)(=O)c1ccc(S(N)(=O)=O)cc1
7 | 0.93 | 3.06 (≈ 800 µg/mL) | NS(=O)(=O)c1ccc(SCCCCO)cc1
8 | 0.17 | 92.9 (≈ 20000 µg/mL) | NS(=O)(=O)c1ccc(CCCO)cc1
9 | 0.95 | 34.8 (≈ 9300 µg/mL) | NS(=O)(=O)c1ccc(SCCCCO)s1
10 | -0.14 | – | COCC(=O)OCCCS(=O)(=O)c1ccc(S(N)(=O)=O)s1
11 | 0.36 | 15 (≈ 3500 µg/mL) | NS(=O)(=O)c1ccc(SCCO)cc1
12 | -0.48 | – | Nc1cc(S(N)(=O)=O)ccc1S(=O)(=O)CCCO
13 | 0.8 | 5.66 (≈ 1400 µg/mL) | NS(=O)(=O)c1ccc(SCCCO)cc1
14 | 1.28 | 3.58 (≈ 1000 µg/mL) | NS(=O)(=O)c1ccc(SCCCCO)c(F)c1
15 | 1.04 | 2.18 (≈ 600 µg/mL) | NS(=O)(=O)c1ccc(SCCCCCO)cc1
16 | 0.74 | – | COC(=O)c1cc(S(N)(=O)=O)ccc1SCCCO
17 | 1.86 | – | CC(=O)OCCCCCc1ccc(S(N)(=O)=O)cc1
18 | – | 7.16 (≈ 2100 µg/mL) | NS(=O)(=O)c1ccc(S(=O)(=O)CCCCO)cc1

Row | logP | solubility [mM] | Structure (SMILES)
19 | 0.72 | 23.9 (≈ 6000 µg/mL) | NS(=O)(=O)c1ccc(SCCO)c(F)c1
20 | 0.38 | 1.8 (≈ 500 µg/mL) | NS(=O)(=O)c1ccc(SCCO)c([N+](=O)[O-])c1
21 | 0.17 | – | CC(=O)OCCCS(=O)(=O)c1ccc(S(N)(=O)=O)s1
22 | 0.99 | 3.39 (≈ 900 µg/mL) | NS(=O)(=O)c1ccc(SCCCO)c(F)c1
23 | -0.3 | – | COC(=O)c1cc(S(N)(=O)=O)ccc1S(=O)(=O)CCCO
24 | 0.96 | 0.342 (≈ 100 µg/mL) | NS(=O)(=O)c1ccc(SCCCO)c([N+](=O)[O-])c1
25 | -0.85 | 24.9 (≈ 6600 µg/mL) | NS(=O)(=O)c1ccc(S(=O)(=O)CCO)cc1
26 | -0.34 | – | NS(=O)(=O)c1ccc(S(=O)(=O)CCCCO)s1
27 | -0.47 | – | COC(=O)c1cc(S(N)(=O)=O)ccc1S(=O)(=O)CCO
28 | -0.6 | – | Nc1cc(S(N)(=O)=O)ccc1S(=O)(=O)CCO
29 | -0.41 | 22.2 (≈ 6600 µg/mL) | NS(=O)(=O)c1ccc(S(=O)(=O)CCCO)c(F)c1
30 | 0.57 | 64.1 (≈ 14700 µg/mL) | NS(=O)(=O)c1ccc(CCCCO)cc1
31 | -0.36 | – | NS(=O)(=O)c1ccc(S(=O)(=O)CCCO)s1
32 | 0.98 | – | CC(=O)OCCCc1ccc(S(N)(=O)=O)cc1
33 | -0.26 | – | NS(=O)(=O)c1ccc(S(=O)(=O)CCCCO)c(F)c1
34 | -0.6 | 11.6 (≈ 3300 µg/mL) | NS(=O)(=O)c1ccc(S(=O)(=O)CCO)c(F)c1
35 | 1.4 | 1.45 (≈ 400 µg/mL) | CC(C)(O)CCSc1ccc(S(N)(=O)=O)cc1
36 | -0.64 | 25.8 (≈ 7200 µg/mL) | NS(=O)(=O)c1ccc(S(=O)(=O)CCCO)cc1
